From US4918173A, “2',6'-Dideoxy derivatives of anthracycline glycosides” (Laboratories Hoechst S.A., priority 1985, dated 1990)
Values after ≈ are worked out from the molar mass of the structure shown. Where two headings read alike, the source gives them in different places.

How the values were obtained:
L 1210 leukemia cells = test: Effect on L 1210 leukemia cells: colony formation in agarose, method of Hamburger and Salmon modified; format: cell-based; conditions: Mus musculus
Protocol: The cells are incubated for 1 hour at 37° C. in the presence of various concentrations of the tested substance. The cells are then washed twice with Mc Coy 5 A and placed on agarose plates according to the method of Hamburger and Salmon. Furthermore, the test is carried out in parallel with continuous incubation with various concentrations of the substance under study by introducing the substance into the agarose layer before the cells are left to incubate. The dishes are placed in the oven at 37° C. under an atmosphere of 5% CO2 and 20% O2, and a relative humidity of 95% for 5 to 7 days. After this time the colonies with a diameter greater than 60 mcm are counted with the aid of a reversed microscope. […] Two experiments are carried out, one with 1 hour's exposure, the other with continuous exposure.

[1] = versus the parent compounds; F. Arcamone et al. 1976; cited from earlier work
[2] = L1210, L 1210 leukemia cells, 1 h exposure at 37° C., read-out: IC 50, 1 h exposure
[3] = L1210, L 1210 leukemia cells, continuous exposure (substance in agarose layer), 5 to 7 days, read-out: IC 50, Continuous exposure

## C[C@@H]1O[C@@H](O[C@H]2C[C@]3(COC(C)(C)O3)Cc3c(O)c4c(c(O)c32)C(=O)c2ccccc2C4=O)C[C@H](O)[C@H]1O
L 1210 leukemia cells; [2]
  IC50: > 1 µg/mL
L 1210 leukemia cells; [3]
  IC50: > 1 µg/mL

## CC(=O)[C@]1(O)Cc2c(O)c3c(c(O)c2[C@@H](O[C@H]2C[C@H](N)[C@H](O)[C@H](C)O2)C1)C(=O)c1ccccc1C3=O [4-demethoxydaunorubicin]
[1]
  activity relative to the parent compounds: more active
  toxicity relative to the parent compounds: less toxic

## COc1cccc2c1C(=O)c1c(O)c3c(c(O)c1C2=O)C[C@@](O)(C(=O)CO)C[C@@H]3O[C@H]1C[C@H](N)[C@H](O)[C@H](C)O1 [DOXORUBICIN, reference compound]
L 1210 leukemia cells; L1210, 1 h, read-out: IC 50, 1 h exposure
  IC50: 0.02 µg/mL (≈ 0.0368 µM)
L 1210 leukemia cells; L1210, read-out: IC 50, Continuous exposure
  IC50: 0.04 µg/mL (≈ 0.0736 µM)

## CC(=O)O[C@H]1[C@H](C)O[C@@H](O[C@H]2C[C@]3(COC(C)(C)O3)Cc3c(O)c4c(c(O)c32)C(=O)c2ccccc2C4=O)C[C@@H]1OC(C)=O [XXIII, 1-O-(3',4'-Di-O-acetyl-2',6'-dideoxy-α-L-arabinohexopyranosyl)-1,2,3,4,6,11-hexahydro-1S,3S,5,12-tetrahydroxy-3-hydroxymethyl-3,13-O-isopropylidenenaphthacene-6,11-dione]
L 1210 leukemia cells; [2]
  IC50: 2.8 µg/mL (≈ 4.59 µM)
L 1210 leukemia cells; [3]
  IC50: > 10 µg/mL

## CC(=O)O[C@H]1[C@H](C)O[C@@H](O[C@H]2C[C@](O)(CO)Cc3c(O)c4c(c(O)c32)C(=O)c2ccccc2C4=O)C[C@@H]1OC(C)=O [XXIV, 1-O-(3',4'-Di-O-acetyl-2',6'-dideoxy-α-L-arabinohexopyranosyl)-1,2,3,4,6,11-hexahydro-1S,3S,5,12-tetrahydroxy-3-hydroxymethylnaphthacene-6,11-dione]
L 1210 leukemia cells; [2]
  IC50: 0.021 µg/mL (≈ 0.0368 µM)
L 1210 leukemia cells; [3]
  IC50: 3.6 µg/mL (≈ 6.31 µM)

## C[C@@H]1O[C@@H](O[C@H]2C[C@](O)(CO)Cc3c(O)c4c(c(O)c32)C(=O)c2ccccc2C4=O)C[C@H](O)[C@H]1O [XXV, 1-O-(2',6'-dideoxy-α-L-arabinohexopyranosyl)-1,2,3,4,6,11-hexahydro-1S,3S,5,12-tetrahydroxy-3-hydroxymethylnaphthacene-6,11-dione]
L 1210 leukemia cells; [2]
  IC50: 0.025 µg/mL (≈ 0.0514 µM)
L 1210 leukemia cells; [3]
  IC50: 0.063 µg/mL (≈ 0.13 µM)

## COc1cccc2c1C(=O)c1c(O)c3c(c(O)c1C2=O)C[C@@](O)(C(=O)CO)C[C@@H]3O[C@H]1C[C@H](N)[C@H](O)[C@H](C)O1 [adriamycin]
[1]
  activity relative to the parent compounds: more active
  toxicity relative to the parent compounds: less toxic
